Key:
[1] = test system: fetal hemoglobin gene expression (HBG1) in human erythroid progenitor cells; assay: Humanized mouse model: fetal hemoglobin mRNA (HBG1, HBB) in bone marrow by Nanostring; assay type: in vivo, NBSGW mice reconstituted with human CD34+ cells; details: for HBG1 expression compared to vehicle (HBG1 alone or HBG1 to total beta hemoglobin mRNA): FIGS. 11A-11C, various doses and treatment regimes
Source text: (§1) Results: To evaluate induction of target cell activity in the bone marrow, a humanized mouse model was developed. This model entails the reconstitution of human hematopoietic progenitor cells within the bone marrow of immunodeficient nonirradiated NOD.Cg-KitW-41J Tyr^+ Prkdc^scid Il2rg^tmlwjl/ThomJ (NBSGW) strain recipient mice. These mice are competent to engraft and differentiate human erythroid progenitor cells that express human adult hemoglobin mRNA and protein subunits within bone marrow.
(§2) Based on these exposure results, humanized mice were treated with either the clinical standard of care compound, hydroxyurea (50 mg/kg; bid), or I-73, at 25 and 100 mg/kg (bid), by oral gavage over a three-week period. At the end of the treatment period, bone marrow was harvested for flow cytometry, as well as for assessment of HbF protein and fetal hemoglobin (HBG1) mRNA levels. Levels of both HbF protein and HBG1 mRNA were normalized to the percentage of human erythroid progenitor cells in the bone marrow of each mouse as determined by immunofluorescence staining for human Glycophorin A cell membrane expression. […] In addition, relative levels of fetal hemoglobin to those of potentially sickling-prone adult hemoglobin (HBB) was assessed.
(§3) Female, 6-week-old NOD.Cg-Kit^W-41J Tyr^+ Prkdc^scid Il2rg^tm1Wjl/ThomJ (NBSGW) mice (Jackson Laboratory strain #[…]) were used for these studies. The mice were acclimatized to laboratory conditions for 5 days prior to inoculation.
(§4) GCSF-mobilized human CD34+ cells were removed from liquid nitrogen storage, thawed in a 37° C. water bath and transferred quickly into a 50 mL conical tube. Cryovial was rinsed once with thaw buffer, 0.1% BSA in phosphate buffered saline (PBS), and buffer was transferred and combined with the original contents in the 50 mL conical tube. Next, doubling volumes of thaw buffer was added to the conical and gently swirled for ˜30 seconds to one minute until the volume in the conical was 32 mL. Cells and buffer were centrifuged at 300G for 8 minutes, and the supernatants were aspirated. Cells were counted by resuspending in 1 mL of thawing buffer per million of cells to a target concentration range of 0.5 to 2M/ml and counting with AOPI (1:1) on a luna cell counter to confirm the concentration of cells/mL. The cell concentration was adjusted to 3×10^6 cells/ml. For each mouse, 300 thousand cells in 0.1 ml were injected into the tail vein with a 25-gauge needle.
(§5) On day 56 after human cell adoptive transfer, whole blood was collected from each mouse by submandibular bleed and a 100 μL sample of EDTA whole blood was transferred to a 2 ml tube containing 1.8 mL ACK Lysing Buffer at room temperature (RT), and then inverted to mix. Samples were incubated at RT for 15 min in the dark to lyse. After lysis, samples are centrifuged at 500×g for 5 minutes at RT to enable supernatant decanting. Remaining cells were washed with 1 mL of PBS-0.5% BSA and centrifuged at 500×g for 5 minutes at 4° C. Supernatant was decanted and cells were stained with leukocyte markers (human and mouse CD45 antibodies; BD347464, BD557659) to confirm human cell engraftment. Mice having less than one percent, or greater than ten percent, human CD45 positive cells were excluded from the subsequent study. Remaining mice were then randomized into treatment groups based on percentage of human cell engraftment. Each treatment group included 10-11 mice.
(§6) Compound I-73 was dissolved in a 5% Cremophor RH40, 20% hydroxylpropyl-β-cyclodextrin solution. Hydroxyurea was solubilized in PBS. Formulations were prepared fresh daily. Commencing on day 84 post human cell engraftment, mice were treated by oral gavage with either I-73, hydroxyurea or their respective vehicles, for a period of three weeks using either once daily (QD) or twice daily (BID) dosing regimens. Mice were monitored daily for body weight and condition. […]

[2] = test system: fetal hemoglobin protein (HbF) in human erythroid progenitor cells; assay: Humanized mouse model: HbF protein in bone marrow by AlphaLISA; assay type: in vivo, NBSGW mice reconstituted with human CD34+ cells; details: for HbF protein levels (AlphaLISA) normalized for % GlyA+ cells: FIG. 10B, most treatment groups
Source text: as §1, §2, §3, §4, §5, §6

[3] = test system: HbF in GlyA+ human erythroid precursor cells; assay: Humanized mouse model: F-cells (GlyA+ cells with detectable HbF) by flow cytometry; assay type: in vivo, NBSGW mice reconstituted with human CD34+ cells; details: FIG. 10A, all treatment groups
Protocol: FIG. 5 is FACS results showing the percentage of GlyA+ cells which also have detectable HbF protein levels in them (called F-cells).
as §3
as §4, with “Cells and buffer were centrifuged at 300G for 8 minutes, and the supernatants were aspirated.” left out, “The cell concentration was adjusted to 3×10^6 cells/ml. For each mouse, 300 thousand cells in 0.1 ml were injected into the tail vein with a 25-gauge needle.” left out
Compound I-73 was dissolved in a 5% Cremophor RH40, 20% hydroxylpropyl-β-cyclodextrin solution. […] Mice were monitored daily for body weight and condition. […]
After 21 days of dosing, all mice were euthanized and prepared for bone marrow collection. […] Extracted cells were counted and aliquoted to prepare for analysis. […]

[4] = Preliminary pharmacokinetic studies (serum exposure); assay type: in vivo, wild-type mice
[5] = humanized mouse model, human erythroid progenitor cells, dose not given at this place

SMILES | HBG1 mRNA transcript levels (Nanostring) ([1]; 25 and 100 mg/kg bid, oral gavage, three weeks (FIG. 1B)) | ratios of HBG1 to HBB mRNA compared with hydroxyurea (50 mg/kg bid) ([1]; 25 and 100 mg/kg bid, oral gavage, three weeks (FIG. 1C)) | HBG1 expression compared to vehicle (HBG1 alone or HBG1 to total beta hemoglobin mRNA) [1] | induction of fetal hemoglobin mRNA (HBG1) [1, 5] | ratio of fetal HBG1 hemoglobin mRNA to adult hemoglobin mRNA (HBB), compared with HU ([1]; humanized mouse model, dose not given at this place) | HbF protein levels in bone marrow (AlphaLISA) compared to vehicle-treated mice ([2]; 25 and 100 mg/kg bid, oral gavage, three weeks, normalized to % GlyA+ cells (FIG. 1A)) | HbF protein levels (AlphaLISA) normalized for % GlyA+ cells [2] | difference in HbF protein levels between the 25 and the 100 mg/kg doses ([2]; bid, oral gavage, three weeks) | induction of fetal hemoglobin protein (HbF) [2, 5] | percentage of HbF expression in GlyA+ cells (F-cell analysis) [3] | serum concentrations relative to that required to inhibit DCN-1 ([4]; dosing at 25 and 100 mg/kg) | in vivo serum exposure levels ([4]; wild-type mice)
CCN1C(=O)[C@@H](NC(=O)c2cccc(C(F)(F)F)c2)[C@@H](c2ccc(F)cc2)c2c([C@@H](C)NC#N)nn(-c3ccccc3)c21 [Compound I-73, N-((4S,5S)-3-((R)-1-cyanamidoethyl)-7-ethyl-4-(4-fluorophenyl)-6-oxo-1-phenyl-4,5,6,7-tetrahydro-1H-pyrazolo[3,4-b]pyridin-5-yl)-3-(trifluoromethyl)benzamide] | enhanced transcript levels | significantly greater ratios | increased HBG1 expression compared to vehicle | an induction of both HBG1 mRNA and HbF protein was observed | significantly greater than HU standard of care | significantly increases | increased HbF protein levels | no significant difference | an induction of both HBG1 mRNA and HbF protein was observed | increased percentage of HbF expression in GlyA+ cells | equivalent to or greater than that required to inhibit DCN-1 | predicted to be sufficient for fetal hemoglobin induction
CCN1C(=O)[C@@H](NC(=O)c2cccc(C(F)(F)F)c2)[C@@H](C2CC2)c2c(C(=O)N3[C@H](C#N)C[C@H]4C[C@H]43)nn(C3CCOCC3)c21 [Compound I-256, N-((4S,5S)-3-((1R,3S,5R)-3-cyano-2-azabicyclo[3.1.0]hexane-2-carbonyl)-4-cyclopropyl-7-ethyl-6-oxo-1-(tetrahydro-2H-pyran-4-yl)-4,5,6,7-tetrahydro-1H-pyrazolo[3,4-b]pyridin-5-yl)-3-(trifluoromethyl)benzamide] | – | – | increased HBG1 expression compared to vehicle | – | – | – | increased HbF protein levels | – | – | increased percentage of HbF expression in GlyA+ cells | – | –
